Laboratory results published in the NIST ThermoML archive (doi:10.1016/j.jct.2012.03.025).
Numbers after ± are expanded uncertainties.

Assay: mn = molality of the nth substance listed, in mol/kg
Conditions: 101 kPa, Liquid; for speed of sound: Sing-around technique in a fixed-path interferometer; for mass density: Vibrating tube method

CCCCn1cc[n+](C)c1.[I-] [1-butyl-3-methylimidazolium iodide] + O
Conditions | mass density, 288.15 K [kg/m3] | mass density, 293.15 K [kg/m3] | mass density, 298.15 K [kg/m3] | mass density, 303.15 K [kg/m3] | mass density, 308.15 K [kg/m3] | speed of sound, 288.15 K [m/s] | speed of sound, 293.15 K [m/s] | speed of sound, 298.15 K [m/s] | speed of sound, 303.15 K [m/s] | speed of sound, 308.15 K [m/s]
m1 = 0.0514 | 1003.51 ± 0.094 | 1002.58 ± 0.094 | 1001.37 ± 0.092 | 999.906 ± 0.092 | 998.257 ± 0.092 | 1471.2 ± 0.77 | 1486.3 ± 0.77 | 1500 ± 0.77 | 1511.9 ± 0.78 | 1522.2 ± 0.78
m1 = 0.1017 | 1007.71 ± 0.095 | 1006.74 ± 0.094 | 1005.46 ± 0.093 | 1003.96 ± 0.092 | 1002.28 ± 0.091 | 1475.6 ± 0.77 | 1489.8 ± 0.78 | 1503 ± 0.78 | 1514.5 ± 0.78 | 1524.4 ± 0.79
m1 = 0.1497 | 1011.65 ± 0.095 | 1010.64 ± 0.094 | 1009.32 ± 0.093 | 1007.76 ± 0.093 | 1006.08 ± 0.092 | 1479.5 ± 0.78 | 1493.2 ± 0.78 | 1505.8 ± 0.79 | 1516.8 ± 0.79 | 1526.2 ± 0.79
m1 = 0.1995 | 1015.69 ± 0.096 | 1014.61 ± 0.095 | 1013.26 ± 0.094 | 1011.7 ± 0.093 | 1009.95 ± 0.092 | 1483.3 ± 0.78 | 1496.4 ± 0.79 | 1508.5 ± 0.79 | 1519.1 ± 0.79 | 1528.1 ± 0.8
m1 = 0.2522 | 1019.87 ± 0.096 | 1018.75 ± 0.095 | 1017.37 ± 0.095 | 1015.77 ± 0.094 | 1013.98 ± 0.093 | 1487.2 ± 0.79 | 1499.6 ± 0.79 | 1511.4 ± 0.8 | 1521.6 ± 0.8 | 1530.1 ± 0.8
m1 = 0.3025 | 1023.82 ± 0.098 | 1022.63 ± 0.097 | 1021.27 ± 0.097 | 1019.6 ± 0.095 | 1017.78 ± 0.095 | 1491 ± 0.8 | 1502.7 ± 0.8 | 1514 ± 0.8 | 1523.7 ± 0.81 | 1531.9 ± 0.81
m1 = 0.3477 | 1027.3 ± 0.099 | 1026.08 ± 0.097 | 1024.71 ± 0.097 | 1023 ± 0.097 | 1021.14 ± 0.095 | 1494.2 ± 0.8 | 1505.2 ± 0.81 | 1516.1 ± 0.81 | 1525.5 ± 0.81 | 1533 ± 0.81
m1 = 0.4036 | 1031.57 ± 0.1 | 1030.23 ± 0.099 | 1028.85 ± 0.099 | 1027.14 ± 0.098 | 1025.23 ± 0.097 | 1498 ± 0.81 | 1508.5 ± 0.81 | 1519 ± 0.82 | 1527.7 ± 0.82 | 1534.9 ± 0.82
m1 = 0.4508 | 1035.08 ± 0.1 | 1033.71 ± 0.1 | 1032.38 ± 0.1 | 1030.58 ± 0.1 | 1028.63 ± 0.099 | 1501.1 ± 0.82 | 1511.1 ± 0.82 | 1521.1 ± 0.82 | 1529.7 ± 0.82 | 1536.2 ± 0.82
m1 = 0.5032 | 1038.95 ± 0.1 | 1037.5 ± 0.1 | 1036.15 ± 0.1 | 1034.41 ± 0.1 | 1032.4 ± 0.1 | 1504.9 ± 0.82 | 1514.1 ± 0.83 | 1523.7 ± 0.83 | 1531.8 ± 0.83 | 1537.6 ± 0.83

CCCCn1cc[n+](C)c1.[Br-] [1-butyl-3-methylimidazolium bromide] + O
Conditions | mass density, 288.15 K [kg/m3] | mass density, 293.15 K [kg/m3] | mass density, 298.15 K [kg/m3] | mass density, 303.15 K [kg/m3] | mass density, 308.15 K [kg/m3] | speed of sound, 288.15 K [m/s] | speed of sound, 293.15 K [m/s] | speed of sound, 298.15 K [m/s] | speed of sound, 303.15 K [m/s] | speed of sound, 308.15 K [m/s]
m1 = 0.0513 | 1001.7 ± 0.065 | 1000.78 ± 0.064 | 999.601 ± 0.064 | 998.177 ± 0.064 | 996.522 ± 0.064 | 1472.8 ± 0.77 | 1488.1 ± 0.77 | 1501.8 ± 0.77 | 1513.7 ± 0.78 | 1524 ± 0.78
m1 = 0.1034 | 1004.29 ± 0.066 | 1003.33 ± 0.065 | 1002.13 ± 0.065 | 1000.67 ± 0.064 | 998.994 ± 0.064 | 1478.8 ± 0.77 | 1493.6 ± 0.78 | 1506.8 ± 0.78 | 1518.3 ± 0.78 | 1528.2 ± 0.79
m1 = 0.1531 | 1006.73 ± 0.067 | 1005.72 ± 0.066 | 1004.51 ± 0.066 | 1003.02 ± 0.066 | 1001.34 ± 0.065 | 1484.5 ± 0.78 | 1498.7 ± 0.78 | 1511.5 ± 0.78 | 1522.5 ± 0.79 | 1532 ± 0.79
m1 = 0.2012 | 1009.09 ± 0.069 | 1008.05 ± 0.068 | 1006.79 ± 0.067 | 1005.29 ± 0.067 | 1003.58 ± 0.066 | 1489.6 ± 0.78 | 1503.7 ± 0.79 | 1516 ± 0.79 | 1526.6 ± 0.79 | 1535.7 ± 0.8
m1 = 0.2499 | 1011.45 ± 0.07 | 1010.37 ± 0.069 | 1009.06 ± 0.068 | 1007.54 ± 0.068 | 1005.82 ± 0.067 | 1494.9 ± 0.79 | 1508.5 ± 0.79 | 1520.4 ± 0.8 | 1530.7 ± 0.8 | 1539.3 ± 0.8
m1 = 0.2995 | 1013.81 ± 0.071 | 1012.7 ± 0.07 | 1011.38 ± 0.07 | 1009.81 ± 0.069 | 1008.07 ± 0.069 | 1500.4 ± 0.8 | 1513.5 ± 0.8 | 1524.9 ± 0.8 | 1534.6 ± 0.8 | 1543 ± 0.81
m1 = 0.35 | 1016.21 ± 0.073 | 1015.02 ± 0.072 | 1013.64 ± 0.071 | 1012.1 ± 0.07 | 1010.34 ± 0.07 | 1505.5 ± 0.8 | 1518.3 ± 0.8 | 1529.3 ± 0.81 | 1538.7 ± 0.81 | 1546.7 ± 0.81
m1 = 0.4008 | 1018.58 ± 0.074 | 1017.37 ± 0.073 | 1015.96 ± 0.073 | 1014.35 ± 0.072 | 1012.6 ± 0.072 | 1510.9 ± 0.81 | 1523 ± 0.81 | 1533.6 ± 0.81 | 1542.6 ± 0.82 | 1550.2 ± 0.82
m1 = 0.4565 | 1021.19 ± 0.077 | 1019.89 ± 0.075 | 1018.45 ± 0.075 | 1016.8 ± 0.074 | 1015.05 ± 0.073 | 1516.4 ± 0.81 | 1528.1 ± 0.82 | 1538.2 ± 0.82 | 1546.8 ± 0.82 | 1554 ± 0.82
m1 = 0.5012 | 1023.28 ± 0.079 | 1021.91 ± 0.077 | 1020.5 ± 0.076 | 1018.75 ± 0.076 | 1017.01 ± 0.075 | 1520.9 ± 0.82 | 1532.2 ± 0.82 | 1542 ± 0.82 | 1550.2 ± 0.83 | 1557.1 ± 0.83
